Source: patent publication US7166472B2, “Method for the identification of agents that inhibit or promote cataracts and uses thereof” (The General Hospital Corporation, priority 2000, dated 2007)
Residue numbers refer to the chain shown, from its start.

Experiments:
[1] = Superoxide assay (dihydroethidium fluorometric); format: biochemical; conditions: test compound 10 μM
Protocol: Superoxide Assay—The fluorometric assay for superoxide is based upon the dihydroethidium (DHE, HYDROETHDNE™) method (Molecular Probes, Eugene, Oreg.) and used according to the manufacturer's instructions. DHE (1 mM) was freshly prepared in 100% argon-sparged DMSO. The reaction solutions were carried out in PBS, pH 7.4, under ambient gas conditions, in 96-well format plates and contained a test compound (KYN, 3-HK, 3-HAA, and ANA, each at 10 μM), DHE (100 μM), +/− Cu(II)-glycine (1 μM) and incubated at 37EC for 60 minutes. […] Abolition of the reading by co-incubation with superoxide dismutase (1000 U/ml) was used for establishing superoxide specificity. The fluorescent readings were recorded by a Packard FLUOROCOUNT™ fluorescent plate reader with a 510 nm excitation filter and 590 nm emission filter. Potassium superoxide dissolved in degassed DMSO was used as a positive control.

α-crystallin = target: T1, α-crystallin (Bos taurus, UniProt P02470+P02510); assay: α-Crystallin modification under longwave ultraviolet illumination; format: biochemical; conditions: exposure of α-crystallin in the presence of longwave ultraviolet illumination
T1 sequence (P02470 1-173): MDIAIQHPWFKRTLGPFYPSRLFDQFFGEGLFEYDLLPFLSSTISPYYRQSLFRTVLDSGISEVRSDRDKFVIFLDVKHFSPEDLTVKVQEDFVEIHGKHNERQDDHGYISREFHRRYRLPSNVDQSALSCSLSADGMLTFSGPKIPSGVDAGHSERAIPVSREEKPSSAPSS
T1 sequence (P02510 1-175): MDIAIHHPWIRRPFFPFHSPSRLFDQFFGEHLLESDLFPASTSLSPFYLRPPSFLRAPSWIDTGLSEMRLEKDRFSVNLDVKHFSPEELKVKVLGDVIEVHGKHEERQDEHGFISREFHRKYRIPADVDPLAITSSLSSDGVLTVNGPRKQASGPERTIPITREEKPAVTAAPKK

[2] = Metal reduction assay, Cu(II) to Cu(I) (BC/BCA indicator); format: biochemical; conditions: for reduction of Cu(II): test compound 10 μM, Cu(II)-glycine 25 μM, PBS pH 7.4, 37° C., dark, one hour
Protocol: (§1) Metal Reduction Assays—Assays were performed using a 96-well microtiter plate (Costar, Mass.). Test compounds from the kynurenine pathway (10 μM) or, as a positive control, ascorbic acid (ASC, 10 μM) were co-incubated with either Fe(III)-citrate (25 μM) and the Fe(II) indicator bathophenanthroline disulfonic acid (BP, 250 μM), or Cu(II)-glycine (25 μM) and the Cu(I) indicator bathocuproine disulfonic acid (BC) or bicinchoninic acid (BCA, 250 μM). Incubations were conducted in PBS, pH 7.4, at 37° C. in the dark for one hour. Absorbencies were then measured using a plate reader (SPECTRAmax Plus, Molecular Devices, CA) at the appropriate wavelengths: Fe(II)-BP complex at 535 nm (the known molar absorption coefficient, M535,=22140 M^−1 cm^−1), Cu(I)-BC complex at 483 nm, M483=12250 M^−1cm^−1), or Cu(I)-BCA complex at 562 nm, M562=7700 M^−1cm^−1). In control samples, absorbance from the metal ion and indicator in the absence of test compound and the absorbance of test compound in the presence of metal ions, but in the absence of indicator, were determined. The absorbencies from these controls were deducted from those obtained in the presence of the test compound, metal and indicator to yield the net absorbance (ΔA). Fe(II) or Cu(I) concentrations (μM) were calculated according to the formula: C(μM)=ΔA*10^6/Mλ.
The compounds comprising the kynurenine pathway (FIG. 1) were assayed for their ability to reduce […] and Cu(II) (FIG. 2A). […] Values represent the mean±SD for three independent measurements.

[3] = Thiobarbituric acid-reactive substance (TBARS) assay for hydroxyl radical; format: biochemical; conditions: reaction with Cu(II)
Source text: Although two Fenton chemistry substrates, hydrogen peroxide and reduced redox-active metal, are produced by 3-HK and 3-HAA, evidence of the hydroxyl radical was not detected using the thiobarbituric acid-reactive substance assay (Huang, X. et al., Biochem. 38:7609–7616 (1999)) (data not shown).

[4] = Hydrogen peroxide assay (DCF fluorometric); format: biochemical
Protocol: Hydrogen Peroxide Assay—The fluorometric assay for hydrogen peroxide is based on the dichlorofluorescein diacetate (DCF) method (Molecular Probes, Eugene, Oreg.). The DCF solution (5 mM) in 100% ethanol was deacetylated in the presence of 0.01 M NaOH for 30 minutes and neutralized. Horseradish peroxidase (200 U/ml) was then added and the DCF concentration adjusted to 200 μM in PBS. The reaction solutions were carried out in PBS, pH 7.4, in a 96-well format plate (total volume=300 μL/well) and contained a test compound (KYN, 3-HK, 3-HAA, ANA, or ASC, each at 10 μM), deacetylated DCF (20 μM), and Cu(II)-glycine (1 μM) as indicated, incubated at 37° C. for 60 minutes. […] Abolition of the reading by co-incubation with catalase (1000 U/ml) was used for establishing H2O2 specificity. The fluorescent readings were recorded by a Packard FLURORCOUNT™ fluorescent plate reader with a 485 nm excitation filter and 530 nm emission filter. Concentrations were determined by comparison to a standard curve using reagent grade hydrogen peroxide in CHELEX™ chelating ion exchanae resin-treated PBS buffer, pH 7.4.
Reactions were conducted in the absence of added Cu(II), in the presence of added glycine-complexed Cu(II) (1 μM), in the presence of added glycine-complexed Cu(II) (1 μM) and catalase (1000 U/ml), or with added glycine-complexed Cu(II) (1 μM) and the copper chelator triethylenetetramine (TETA, 200 μM).

[5] = Metal reduction assay, Fe(III) to Fe(II) (BP indicator); format: biochemical; conditions: test compound 10 μM, Fe(III)-citrate 25 μM, PBS pH 7.4, 37° C., dark, one hour
Protocol: as §1, with “C(μM)=ΔA*10^6/Mλ. […]” for “C(μM)=ΔA*10^6/Mλ.”

[6] = Cyclic voltammetry of kynurenine metabolites with Cu(II); format: physicochemical; conditions: metabolite 100 μM, cupric chloride 25 μM, PBS pH 7.4
Protocol: Cyclic Voltammetry—Cyclic voltammetry was performed at room temperature (22±2° C.) on ambient solutions using an EG&G PAR potentiostat, Model 273. The potentiostat was operated in Ramp Mode, generating a potential staircase waveform with a 0.25 mV step height. The potential window of +0.15 to −0.4V, in which Cu(I) is electroactive, but the metabolites are not, was scanned in both directions at a rate of 100 mV/sec. The current response was passed through a 5.3 Hz low pass filter. A minimum of three cycles were collected for each scan, ensuring the stability of the electrochemical response. The electrochemical cell consisted of an indium/tin oxide working electrode (Delta Technologies) with an active area of 0.32 cm^2, a platinum wire auxiliary electrode, and a Ag/AgCl (1 M KCl) reference electrode (Microelectrodes Inc.). Both the auxiliary and reference electrodes were positioned in the cell in close proximity to the working electrode. The working electrodes were pretreated with successive 10 minute sonications in Alconox (˜8 g/L), 95% ethanol, Milli-Q purified H2O (2×), and PBS (pH 7.4), followed by an overnight soak in PBS (pH 7.4). The ITO electrodes were subsequently “activated” immediately prior to use by successive cycling in PBS for three cycles in each of the following potential windows: +0.15 ? −0.4 V, +0.4 ? −0.4 V, and +1.0 ? −0.4 V. Cupric chloride (25 μM; Allied Chemical) was used as the Cu(II) source. Background voltammograms were obtained on each new electrode before testing the kynurenine pathway metabolites. PBS solutions of KYN, 3-HK, ANA, and 3-HAA (each at 100 μM) were separately scanned with and without added Cu(II) (25 μM). Each experiment also included a scan of Cu(II) (25 μM) in PBS without added test compound. All solutions were tested within minutes of being prepared. Each test was repeated to ensure the reproducibility of the results.
The voltammograms in FIGS. 3A–3D compare 3-HK and 3-HAA to their corresponding non-phenolic analogs, kynurenine (KYN) and anthranilic acid (ANA), in aqueous solutions of Cu(II) at pH 7.4. […] At potentials above +0.15 V, the metabolites undergo direct irreversible oxidation, a reaction that is not considered further here. Cyclic voltammetry of Cu(II) in PBS yielded a current response at ≈−100 mV due to reduction of the metal ion (scan “b” in each panel).

[7] = Metal reduction capacity of tanned calf lens α-crystallin, Cu(II); format: biochemical; conditions: α-crystallin treated with 100 μM reductant, then dialysis
Protocol: Studies of Tanned Calf Lens Crystalin in Assay of Crystallin Protein for Metal Reduction Capacity—α-Crystallin (10 mg/ml) from calf lens was modified by reaction with 3-HK (100 μM), 3-HAA (100 μM), or ASC (100 μM) in PBS, ph 7.4, for 12 hours at 4° C. in the dark. Control samples were incubated with ascorbic acid (100 μM) or without added reductant. The tanning incubation solutions also contained triethylenetetramine (TETA, 200 μM) to prevent cross-linking of the protein. After incubation, free reductant was removed from the tanned α-crystallin preparations by exhaustive dialysis at 4EC in the dark utilizing PBS, pH 7.4, containing CHELEX™ 100 chelating ion exchange resin (BioRad, Hercules, Calif.). The various modified α-crystallin preparations (100 μg/ml) were co-incubated with either Cu(II)-glycine glycine (25 μM) or Fe(III)-citrate (25 μM) for one hour at 37° C. and assayed for metal reduction capacity using the BC and BP spectrophotometric assay as detailed above. Incubated and dialyzed α-crystallin (100 μg/ml) and untreated α-crystallin (100 μg/ml) preparations were used for procedural control.
3-HK: α-crystallin reduced nearly 100% of the available Cu(II) and approximately 20% of the available Fe(III). 3-HAA: α-crystallin reduced approximately 65% of the available Cu(II).

[8] = Hydrogen peroxide assay (DCF fluorometric); format: biochemical; conditions: reacting with Cu(II), 37° C., dark
[9] = target: bovine serum albumin (BSA) (Bos taurus, UniProt P02769); conditions: 3-HK with Cu(II); TETA
αB-crystallin = target: T2, αB-crystallin (Bos taurus, UniProt P02510); assay: αB-crystallin cross-linking in total calf lens protein (Western blot)
T2 sequence (P02510 1-175): T1 sequence (P02510 1-175)

[10] = target: T3, recombinant human αB-crystallin (Homo sapiens, UniProt P02511); assay: Recombinant human αB-crystallin cross-linking (SDS-PAGE, silver stain); format: biochemical; conditions: TETA 200 μM
T3 construct: gift of Dr. J. Liang, Brigham and Women's Hospital
T3 sequence (P02511 1-175): T1 sequence (P02510 1-175) with A40T, I61F, A132T, A152V
Protocol: Various solutions containing 3-HK (10 μM) or other kynurenine pathway metabolites (10 μM), Cu(II)-glycine (10 μM), Fe(III)-citrate (10 μM), and triethylenetetramine (TETA, 200 μM), were added in combinations as indicated. […] After incubation, aliquots of the total lens protein solutions were mixed with sample buffer containing 4% SDS and 5% β-mercaptoethanol, heated to 95° C. for 5 minutes, and loaded at 1 μg/lane on a 10–20% Tricine gel (Novex, San Diego, Calif.). […] For the experiments with recombinant αB-crystallin, aliquots of the protein solutions were mixed with sample running buffer containing NuPAGE sample buffer (Novex, San Diego, Calif.) and 10% β-mercaptoethanol, heated to 95° C. for 5 minutes, spun briefly, then loaded on a NuPAGE 4–12% Bis-Tris polyacrylamide gel at 375 ng/lane and electrophoresed with denaturing 3-(N-morpholino)propanesulfonic acid (MOPS)-SDS running buffer according to the manufacturer's recommendations.
To exclude the effects of other lens proteins on the observed findings in FIG. 5, these interactions with purified recombinant human αB-crystallin were examined.

Sequence of bovine serum albumin (BSA) (P02769 25-607): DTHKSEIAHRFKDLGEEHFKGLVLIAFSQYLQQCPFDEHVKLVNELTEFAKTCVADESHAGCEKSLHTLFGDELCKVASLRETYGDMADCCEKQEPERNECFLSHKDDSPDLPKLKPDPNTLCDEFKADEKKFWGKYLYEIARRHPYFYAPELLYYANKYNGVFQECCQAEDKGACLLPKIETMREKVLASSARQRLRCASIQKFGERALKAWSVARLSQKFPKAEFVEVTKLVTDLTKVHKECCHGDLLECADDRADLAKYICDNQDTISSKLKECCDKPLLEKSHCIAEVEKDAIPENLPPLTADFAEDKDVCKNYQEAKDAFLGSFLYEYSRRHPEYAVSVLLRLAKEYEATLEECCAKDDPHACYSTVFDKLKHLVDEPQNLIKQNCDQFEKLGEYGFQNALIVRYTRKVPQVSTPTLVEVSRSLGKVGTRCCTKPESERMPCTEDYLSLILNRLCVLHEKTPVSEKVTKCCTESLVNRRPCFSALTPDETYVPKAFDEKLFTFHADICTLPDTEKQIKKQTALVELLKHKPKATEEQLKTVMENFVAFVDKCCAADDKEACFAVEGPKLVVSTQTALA

Nc1c(O)cccc1C(=O)O [3-HAA, 3-hydroxyanthranilic acid]
effect of Cu(II) on superoxide generation ([1]; Cu(II)-glycine 1 μM): strongly promoted
superoxide production ([1]; ambient oxygen, dark, 60 minutes): significant superoxide production
capacity of altered α-crystallin to reduce metal and generate hydrogen peroxide (α-crystallin): dramatically enhanced capacity
reduction of Cu(II) [2]: 100%
evidence of the hydroxyl radical [3]: not detected
hydrogen peroxide generated relative to available Cu(II) [4]: approximately 3 fold
hydrogen peroxide generated ([4]; ambient gas conditions, CHELEX-treated PBS, FIG. 4C): approx. 3 μM
reduction of Fe(III) [5]: approximately 50%
Cu(II) reduction wave in presence of metabolite [6]: markedly decreased

O=C1O[C@H]([C@@H](O)CO)C(O)=C1O [ASC, ascorbic acid, reference compound]
enhancement of α-crystallin reducing efficiency after treatment [7]: did not result in the enhancement
capacity of altered α-crystallin to reduce metal and generate hydrogen peroxide (α-crystallin): did not share this property
time dependence of hydrogen peroxide generation [8]: continuous over five hours

NCCNCCNCCN [TETA, triethylenetetramine, reference compound]
effect on BSA protein depletion [9]: abolished
effect of chelator on metal reduction by 3-HK, 3-HAA and XA ([2]; chelator 250 μM): abolished
effect on 3-HK induced αB-crystallin cross-linking (αB-crystallin; TETA 200 μM co-incubation): abolished
effect on depletion of monomeric αB-crystallin (αB-crystallin; co-incubated with 3-HK and Cu(II), TETA 200 μM): reversed the depletion
effect on hydrogen peroxide generation by 3-HK or 3-HAA ([4]; Cu(II) 1 μM, catalase 1000 U/ml or TETA 200 μM): abolished
effect on 3-HAA Cu(II)-dependent oligomerization and loss of the monomer [10]: reversed
effect on cross-linking by Cu(II) and 3-HK [10]: substantially attenuated
effect on depletion of monomeric αB-crystallin by 3-HK and Cu(II) [10]: completely reversed the depletion

O=C(O)c1cc(O)c2cccc(O)c2n1 [XA, xanthurenic acid]
reduction of Cu(II) [2]: approximately 40%
reduction of Fe(III) [5]: did not reduce
